# Data: ChEMBL document CHEMBL1157733, “Isolation, structure, and bioactivities of abiesadines A-Y, 25 new diterpenes from Abies georgei Orr” (Bioorg Med Chem, 2010)
# Legend:
# [1] = Antiproliferative activity against human QGY7703 cells; format: functional, cell-based; conditions: QGY-7703
# RAW264.7 = experiment: Antiinflammatory activity in mouse RAW264.7 cells assessed as inhibition of LPS-induced NO release; format: functional, cell-based
# [2] = Inhibition of TNF-alpha-induced NF-kappaB activity in human pNF-kappaB-luc-293 cells; format: cell-based; conditions: HEK293
# LoVo = experiment: Antiproliferative activity against human LoVo cells; format: functional, cell-based
Structure (SMILES),IC50 [1],IC50 (RAW264.7),IC50 [2],IC50 (LoVo)
CC(C)(O)c1ccc2c(c1)[C@H](O)C[C@H]1[C@](C)(C(=O)O)CCC[C@]21C,> 25 µg/mL,> 100 µg/mL,> 100 µg/mL,> 25 µg/mL
C=C[C@@](C)(O)CC[C@@H]1[C@@]2(C)CCCC(C)(C)[C@@H]2CC[C@@]1(C)O,> 25 µg/mL,,,13 µg/mL
CC(C)c1cc2c(cc1O)[C@@]1(C)CCC[C@@](C)(C(=O)O)[C@@H]1CC2,> 25 µg/mL,63 µg/mL,> 100 µg/mL,> 25 µg/mL
C/C(=C\CO)CCC1[C@](C)(O)CC[C@H]2C(C)(C)CCC[C@]12C (some centres undefined),> 25 µg/mL,> 100 µg/mL,> 100 µg/mL,> 25 µg/mL
C=C[C@@](C)(O)[C@H]1CC2[C@@]3(C)CCCC(C)(C)C3CC[C@@]2(C)O1 (some centres undefined),15.7 µg/mL,21.6 µg/mL,8.7 µg/mL,23.1 µg/mL
CC(C)[C@]12C=C3CC[C@H]4[C@](C)(C(=O)O)CCC[C@]4(C)[C@@]3(CC1)OO2,> 25 µg/mL,> 100 µg/mL,> 100 µg/mL,> 25 µg/mL
CC(C)C1=CC2=CC[C@H]3[C@](C)(COC(=O)CCC(=O)O)CCC[C@]3(C)[C@H]2CC1,> 25 µg/mL,> 100 µg/mL,> 100 µg/mL,> 25 µg/mL
CC(C)(O)C1=CC2=CC[C@@H]3[C@](C)(CCC[C@@]3(C)C(=O)O)[C@H]2CC1=O,> 25 µg/mL,> 100 µg/mL,> 100 µg/mL,> 25 µg/mL
CC(C)c1ccc2c(c1)C(=O)C[C@H]1[C@](C)(C(=O)O)CCC[C@]21C,10.2 µg/mL,> 100 µg/mL,> 100 µg/mL,> 25 µg/mL
CC(C)(O)c1ccc2c(c1)C(=O)C[C@H]1[C@](C)(C(=O)O)CCC[C@]21C,> 25 µg/mL,44 µg/mL,> 100 µg/mL,> 25 µg/mL
CC(C)c1ccc2c(c1)[C@@H](O)C[C@H]1[C@](C)(CO)CCC[C@]21C,> 25 µg/mL,> 100 µg/mL,> 100 µg/mL,> 25 µg/mL
CC(C)(O)c1ccc2c(c1)CC[C@H]1[C@](C)(C(=O)O)CCC[C@]21C,> 25 µg/mL,76.4 µg/mL,> 100 µg/mL,> 25 µg/mL
CC(C)c1ccc2c(c1)C(=O)C[C@H]1[C@](C)(CO)CCC[C@]21C,> 25 µg/mL,> 100 µg/mL,> 100 µg/mL,> 25 µg/mL
CC(C)c1ccc2c(c1)CC[C@H]1[C@](C)(COC(=O)CCC(=O)O)CCC[C@]21C,> 25 µg/mL,> 100 µg/mL,> 100 µg/mL,> 25 µg/mL
CC(C)c1ccc2c(c1)[C@H](O)C[C@H]1[C@](C)(CO)CCC[C@]21C,> 25 µg/mL,> 100 µg/mL,> 100 µg/mL,9.2 µg/mL
CC(C)(O)c1ccc2c(c1)CC[C@H]1[C@](C)(CO)CCC[C@]21C,> 25 µg/mL,> 100 µg/mL,> 100 µg/mL,> 25 µg/mL
CC(C)[C@@]12C=C3CC[C@H]4[C@](C)(C(=O)O)CCC[C@]4(C)[C@]3(CC1)OO2,> 25 µg/mL,> 100 µg/mL,> 100 µg/mL,> 25 µg/mL
C=C/C(C)=C\CC1[C@](C)(O)CC[C@H]2C(C)(C)CCC[C@]12C (some centres undefined),25 µg/mL,> 100 µg/mL,> 100 µg/mL,20.3 µg/mL
CC(C)c1ccc2c(c1)[C@H](O)C[C@H]1[C@](C)(C(=O)O)CCC[C@]21C,> 25 µg/mL,> 100 µg/mL,> 100 µg/mL,> 25 µg/mL
CC(C)(O)c1ccc2c(c1)[C@@H](O)C[C@H]1[C@](C)(C(=O)O)CCC[C@]21C,> 25 µg/mL,> 100 µg/mL,> 100 µg/mL,> 25 µg/mL
CC(C)c1ccc2c(c1)[C@@H](O)C[C@H]1[C@](C)(C(=O)O)CCC[C@]21C,> 25 µg/mL,> 100 µg/mL,> 100 µg/mL,> 25 µg/mL
CC(C)/C(C=O)=C\C[C@H]1C(=O)CC[C@@H]2[C@]1(C)CCC[C@@]2(C)C(=O)O [ABIESADINE A],> 25 µg/mL,> 100 µg/mL,> 100 µg/mL,> 25 µg/mL
CC(C)c1ccc(O)c(CC[C@@H]2[C@@](C)(O)CCC[C@@]2(C)C(=O)O)c1 [ABIESADINE B],> 25 µg/mL,> 100 µg/mL,> 100 µg/mL,> 25 µg/mL
CC(C)[C@]12O[C@H]1CC1[C@@]3(C)CCC[C@@](C)(C(=O)O)[C@@H]3CC[C@@]1(O)[C@H]2O (some centres undefined) [ABIESADINE C],> 25 µg/mL,> 100 µg/mL,> 100 µg/mL,> 25 µg/mL
CC(C)[C@]12CC[C@@]3(O1)[C@@]1(C)CCC[C@@](C)(C(=O)O)[C@@H]1CC[C@]3(O)[C@H]2O [ABIESADINE D],> 25 µg/mL,> 100 µg/mL,> 100 µg/mL,> 25 µg/mL

Structure (SMILES),IC50 [1],IC50 (RAW264.7),IC50 [2],IC50 (LoVo)
CC(C)C1=CC[C@H]2C(=C1)C(=O)C[C@@H]1[C@]2(C)CCC[C@@]1(C)C(=O)O [ABIESADINE E],> 25 µg/mL,> 100 µg/mL,> 100 µg/mL,> 25 µg/mL
CC(C)c1ccc2c(c1)[C@H](O)C[C@H]1[C@](C)(COC(=O)CCC(=O)O)CCC[C@]21C [ABIESADINE F],> 25 µg/mL,> 100 µg/mL,> 100 µg/mL,> 25 µg/mL
CO[C@@H]1C[C@H]2[C@](C)(COC(=O)CCC(=O)O)CCC[C@]2(C)c2ccc(C(C)C)cc21 [ABIESADINE G],> 25 µg/mL,> 100 µg/mL,> 100 µg/mL,> 25 µg/mL
COC(=O)CCC(=O)OC[C@]1(C)CCC[C@]2(C)c3ccc(C(C)C)cc3[C@H](O)C[C@@H]12 [ABIESADINE H],> 25 µg/mL,83.4 µg/mL,> 100 µg/mL,> 25 µg/mL
CC(C)(O)c1ccc2c(c1)CC[C@H]1[C@](C)(COC(=O)CCC(=O)O)CCC[C@]21C [ABIESADINE I],> 25 µg/mL,> 100 µg/mL,> 100 µg/mL,> 25 µg/mL
COC(C)(C)c1ccc2c(c1)CC[C@H]1[C@](C)(COC(=O)CCC(=O)O)CCC[C@]21C [ABIESADINE J],> 25 µg/mL,> 100 µg/mL,> 100 µg/mL,> 25 µg/mL
COC(=O)CCC(=O)OC[C@]1(C)CCC[C@]2(C)c3ccc(C(C)(C)O)cc3CC[C@@H]12 [ABIESADINE K],> 25 µg/mL,52.1 µg/mL,> 100 µg/mL,> 25 µg/mL
CC(C)(O)c1ccc2c(c1)[C@H](O)C[C@H]1[C@](C)(COC(=O)CCC(=O)O)CCC[C@]21C [ABIESADINE L],> 25 µg/mL,> 100 µg/mL,> 100 µg/mL,> 25 µg/mL
COC(C)(C)c1ccc2c(c1)[C@H](O)C[C@H]1[C@](C)(COC(=O)CCC(=O)O)CCC[C@]21C [ABIESADINE M],> 25 µg/mL,> 100 µg/mL,> 100 µg/mL,> 25 µg/mL
COC(C)(C)c1ccc2c(c1)CC[C@H]1[C@](C)(C(=O)O)CCC[C@]21C [ABIESADINE N],> 25 µg/mL,> 100 µg/mL,> 100 µg/mL,> 25 µg/mL
COC(C)(C)c1ccc2c(c1)[C@H](O)C[C@H]1[C@](C)(C(=O)O)CCC[C@]21C [ABIESADINE O],> 25 µg/mL,> 100 µg/mL,> 100 µg/mL,> 25 µg/mL
CCOC(C)(C)c1ccc2c(c1)CC[C@H]1[C@](C)(C(=O)O)CCC[C@]21C [ABIESADINE P],> 25 µg/mL,94.1 µg/mL,> 100 µg/mL,> 25 µg/mL
CC(C)c1ccc2c(c1)C(=O)C[C@H]1[C@](C)(COC(=O)CCC(=O)O)CCC[C@]21C [ABIESADINE Q],> 25 µg/mL,> 100 µg/mL,> 100 µg/mL,> 25 µg/mL
CC(C)(O)c1ccc2c(c1)C(=O)C[C@H]1[C@](C)(COC(=O)CCC(=O)O)CCC[C@]21C [ABIESADINE R],> 25 µg/mL,> 100 µg/mL,> 100 µg/mL,> 25 µg/mL
COC(=O)CCC(=O)OC[C@]1(C)CCC[C@]2(C)c3ccc(C(C)(C)O)cc3C(=O)C[C@@H]12 [ABIESADINE S],> 25 µg/mL,49 µg/mL,> 100 µg/mL,> 25 µg/mL
CC(C)[C@]12C=C3CC[C@H]4[C@](C)(COC(=O)CCC(=O)O)CCC[C@]4(C)[C@@]3(CC1)OO2 [ABIESADINE W],> 25 µg/mL,> 100 µg/mL,> 100 µg/mL,> 25 µg/mL
C=C[C@@](C)(O)CCC1C(=C)CC[C@H]2[C@](C)(COC(=O)CCC(=O)O)CCC[C@]12C (some centres undefined) [ABIESADINE X],> 25 µg/mL,> 100 µg/mL,> 100 µg/mL,> 25 µg/mL
C=C[C@@](C)(O)CC[C@H]1C(=C)CC[C@H]2[C@](C)(COC(=O)CCC(=O)OC)CCC[C@]12C [ABIESADINE Y],> 25 µg/mL,48.5 µg/mL,22.4 µg/mL,10.6 µg/mL
CC(C)C1=CC2=CC[C@@H]3[C@](C)(CCC[C@@]3(C)C(=O)O)[C@H]2CC1 [ABIETIC ACID],> 25 µg/mL,> 100 µg/mL,> 100 µg/mL,> 25 µg/mL
CC(C)c1ccc2c(c1)CC[C@H]1[C@](C)(C(=O)O)CCC[C@]21C [DEHYDROABIETIC ACID],> 25 µg/mL,42.7 µg/mL,> 100 µg/mL,> 25 µg/mL
COc1cccc2c1C(=O)c1c(O)c3c(c(O)c1C2=O)C[C@@](O)(C(=O)CO)C[C@@H]3O[C@H]1C[C@H](N)[C@H](O)[C@H](C)O1 [DOXORUBICIN],0.42 µg/mL,,,0.55 µg/mL
C=C[C@@](C)(O)CC[C@H]1C(=C)CC[C@H]2C(C)(C)CCC[C@]12C [MANOOL],> 25 µg/mL,11 µg/mL,> 100 µg/mL,> 25 µg/mL
N=C(N)NN [PIMAGEDINE],,3.3 µg/mL,,
CC(C)c1ccc2c(c1)CC[C@H]1[C@](C)(CO)CCC[C@]21C [POMIFERIN A],> 25 µg/mL,> 100 µg/mL,> 100 µg/mL,9.2 µg/mL
